Assays:
A. baumanii (ATCC 17978) [1] = experiment: MIC, broth microdilution in CA-MHB; assay type: cell-based
Method: (§1) Antimicrobial activity was screened against a range of pathogens made up of clinically relevant ESKAPE pathogens by determination of the minimum inhibitory concentration (MIC) in cation-adjusted Mueller-Hinton broth (CA-MHB).
(§2) Minimum inhibitory concentrations of COEs were determined through a broth microdilution method in accordance with the Clinical and Laboratory Standards Institute (CLSI) guidelines M07-A10. A single bacterial colony was isolated from an overnight culture and grown to mid-log phase (OD600~0.8). Compounds were prepared as a stock solution in DMSO and diluted in a sterile flat-bottom 96-well plate in CA-MHB. Subsequent concentrations were prepared by two-fold dilution of the initial solution. An equivalent volume of bacteria was added to the compound to a final concentration of 5×10^5 cfu/mL. Plates were incubated at 37° C. for 16-18 hours, and read at OD600 using a microplate reader (TECAN Spark®). […] MIC values were determined for each compound in triplicate.

[2] = tested on: E. coli. K12 (ATCC 10798); experiment: MIC, broth microdilution in CA-MHB; assay type: cell-based
Method: as §1, §2

E. facium (ATCC 19434) = experiment: MIC, broth microdilution in CA-MHB; assay type: cell-based; conditions: CA-MHB
Method: as §1, §2

[3] = tested on: E. faecalis OG1RF (ATCC 47077); experiment: MIC, broth microdilution in CA-MHB; assay type: cell-based
Method: as §1, §2

[4] = tested on: K. pneumoniae (carbapenem-resistant Enterobacterales) (ATCC BAA1705); experiment: MIC, broth microdilution in CA-MHB; assay type: cell-based
Method: as §1, §2

[5] = tested on: Methicillin-resistant S. aureus (ATCC BAA1717); experiment: MIC, broth microdilution in CA-MHB; assay type: cell-based
Method: as §1, §2

[6] = tested on: P. aeruginosa (ATCC47085); experiment: MIC, broth microdilution in CA-MHB; assay type: cell-based
Method: as §1, §2

S. aureus (ATCC 29213) = experiment: MIC, broth microdilution in CA-MHB; assay type: cell-based
Method: as §1, §2

[7] = tested on: A549 (lung epithelial cells); experiment: Cytotoxicity against mammalian cell line; assay type: cell-based
Method: The cytotoxicity of the TPP COEs was also tested against a mammalian cell line (A549).

A. baumanii (ATCC 17978) [8] = experiment: Minimum bactericidal concentration (MBC); assay type: cell-based; conditions: strain AB; unit printed in b207 only
Method: (§3) To study the extent to which TPP-COEs can effectively kill bacteria, bacteria cells treated with DM6P at varying concentrations were plated onto Tryptic Soy Agar (TSA) and the minimum bactericidal concentration (MBC), where complete eradication of the inoculum occurred, was determined (Table 5). MBC values ranged from 2 μg mL^−1 towards MRSA to 8 μg mL^−1 towards PAO1 and stayed within a two to four-fold range of the MIC values for all strains tested.
(§4) Bacteria samples treated with DM6P at varying concentrations from a broth microdilution method in a 96-well plate according to the methods for determining the MIC. Colonies were plated on TSB agar plates with 20 μL inoculation and the plates incubated at 37° C. overnight. […] All measurements were performed in triplicate.

[9] = tested on: E. coli. K12 (ATCC 10798); experiment: Minimum bactericidal concentration (MBC); assay type: cell-based; conditions: strain EC; unit printed in b207 only
Method: as §3, §4

[10] = tested on: E. faecalis OG1RF (ATCC 47077); experiment: Minimum bactericidal concentration (MBC); assay type: cell-based; conditions: strain EF; unit printed in b207 only
Method: as §3, §4

[11] = tested on: K. pneumoniae (ATCC BAA1705); experiment: Minimum bactericidal concentration (MBC); assay type: cell-based; conditions: strain CRKP; unit printed in b207 only
Method: as §3, §4

[12] = tested on: Methicillin-resistant S. aureus (ATCC BAA1717); experiment: Minimum bactericidal concentration (MBC); assay type: cell-based; conditions: strain MRSA; unit printed in b207 only
Method: as §3, §4

[13] = tested on: P. aeruginosa (ATCC47085); experiment: Minimum bactericidal concentration (MBC); assay type: cell-based; conditions: strain PA (PAO1); unit printed in b207 only
Method: as §3, §4

PAO1 = experiment: Membrane depolarization assay (DiSC3(5)); assay type: cell-based, P. aeruginosa; conditions: DiSC3(5)-encapsulated PAO1 cells
Description: The interactions of DM6P with various bacterial cell membranes were first investigated through spectrometric methods. In normal cells, compartmentalization of the intracellular space by the lipid bilayer enables the maintenance of a transmembrane potential, which is necessary for regular cell division and energy production. The membrane-potential sensitive dye 3,3′-dipropylthiadicarbocyanine iodide (DiSC3(5)) accumulates within the membranes of healthy, polarized cells where its fluorescence is self-quenched. Depolarization of the membrane necessary to maintain this gradient causes the release of this dye, resulting in an increase in fluorescence intensity. […]
Determination of the extent of depolarization of bacterial cell membranes was carried out using a voltage sensitive dye DiSC3(5) (ThermoFisher, USA). The dye is able to accumulate within polarized healthy cell membranes with resulting quenched fluorescence. When the membrane is depolarized, subsequent ion permeabilization releases the dye from the membrane and gives rise to enhanced fluorescence intensity.^3 The assay was performed according to a modified protocol reported previously. […] The plate was incubated in the dark for 30 minutes, with the signal measured every 5 minutes until a stable baseline was observed. COEs were then added at varying concentrations and the fluorescence intensity was measured over time at 37° C. […]

[14] = phosphate-buffered saline; below 10 μg mL^−1 estimated by turbidimetric screening
Method: The solubility of all the TPP derivatives was determined in phosphate-buffered saline (PBS) (Table S3).

Structure (SMILES): COc1cc(/C=C/c2ccc(OCCCCCC[P+](c3ccccc3)(c3ccccc3)c3ccccc3)c(OC)c2)ccc1OCCCCCC[P+](c1ccccc1)(c1ccccc1)c1ccccc1.[I-].[I-] [DM6P]
- MIC AB (A. baumanii (ATCC 17978) [1]; CA-MHB): 8 µg/mL
- MIC (A. baumanii (ATCC 17978) [1]; strain AB, Table 5): 8 µg/mL
- MIC EC ([2]; CA-MHB): 2 µg/mL
- MIC ([2]; strain EC, Table 5): 2 µg/mL
- MIC FAC (E. facium (ATCC 19434)): 1 µg/mL
- MIC FAE ([3]; CA-MHB): 1 µg/mL
- MIC ([3]; strain EF, Table 5): 1 µg/mL
- MIC KP ([4]; CA-MHB): 8 µg/mL
- MIC ([4]; strain CRKP, Table 5): 8 µg/mL
- MIC MRSA ([5]; CA-MHB): 1 µg/mL
- MIC ([5]; strain MRSA, Table 5): 1 µg/mL
- MIC ([5]; towards MRSA, Table 3): 1 µg/mL
- MIC PA ([6]; CA-MHB): 4 µg/mL
- MIC ([6]; strain PA, Table 5): 4 µg/mL
- MIC SA (S. aureus (ATCC 29213)): 1 µg/mL
- IC50 [7]: 11 µg/mL
- MBC (A. baumanii (ATCC 17978) [8]): 32 µg/mL
- MBC [9]: 2 µg/mL
- MBC [10]: 4 µg/mL
- MBC [11]: 16 µg/mL
- MBC [12]: 2 µg/mL
- MBC [13]: 8 µg/mL
- depolarization of the bacterial membrane (PAO1): dose-dependent depolarization
- solubility in PBS [14]: 108 µg/mL
